Assay results as given in patent US20240246905A1 (University of Leicester, priority 2021, published 2024).
Converted amounts (≈) assume the structure as drawn.

How the values were obtained:
MRSA 252 [1] = assay: MIC, broth micro-dilution; assay type: cell-based, Staphylococcus aureus; details: Staphylococcus aureus, read-out: MIC
Summary of the method: (§1)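 Broth micro-dilution followed CLSI 2017: 1:2 antibiotic dilutions in TSB were inoculated at 5×10^5 CFU/mL. OD was recorded every 12 min over 18 h at 37 °C, and MIC was derived from sigmoidal dose-response fits.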

MSSA 476 [2] = assay: MIC, broth micro-dilution; assay type: cell-based, Staphylococcus aureus; details: Staphylococcus aureus, MSSA, read-out: MIC
Summary of the method: as §1

MRSA 252 [3] = assay: Disc diffusion (Kirby-Bauer), zone of inhibition; assay type: cell-based, Staphylococcus aureus; details: Staphylococcus aureus, 500 μg/mL, '/' = no zone, read-out: Zone of inhibition
Summary of the method: (§2)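 Kirby-Bauer per CLSI 2017: 1 in 200 dilutions of overnight cultures (LB for Gram-negatives, TSB for Gram-positives) spread on Mueller-Hinton agar. Discs loaded with 50 μL antibiotic were added and plates incubated 24 h at 37 °C. Zone of inhibition recorded.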

MSSA 476 [4] = assay: Disc diffusion (Kirby-Bauer), zone of inhibition; assay type: cell-based, Staphylococcus aureus; details: Staphylococcus aureus, 500 μg/mL, '/' = no zone, read-out: Zone of inhibition
Summary of the method: as §2

Escherichia coli DH5α = assay: Disc diffusion (Kirby-Bauer), zone of inhibition; assay type: cell-based; details: Escherichia coli DH5α; 500 μg/mL; '/' = no zone; read-out: Zone of inhibition
Summary of the method: as §2

[5] = tested on: Staphylococcus aureus 15981; assay: Disc diffusion (Kirby-Bauer), zone of inhibition; assay type: cell-based; details: Staphylococcus aureus 15981; 500 μg/mL; '/' = no zone; read-out: Zone of inhibition
Summary of the method: as §2

[6] = tested on: various Staphylococcus aureus strains; assay: Disc diffusion, Staphylococcus aureus strain study; assay type: cell-based; details: Staphylococcus aureus, 500 μg/mL
Source text: At this point in the study it was decided to perform a disc diffusion assay study on 50 S. aureus strains. […] Moreover, by employing a range of mutant strains of S. aureus with specific gene-deletions, it was believed that if particular strains were resistant to the lead compounds, it could provide insights on the likely protein target of the lead antibiotics. However, all six of the compounds utilized in this study were able to inhibit growth of all 50 strains of S. aureus assayed at the chosen concentration of 500 μg/mL concentration (Table 5).
E. coli DH5α, P. aeruginosa PA01 and the 53 S. aureus strains were recovered from frozen (−80° C.) glycerol (15% v/v) stocks on Lysogeny agar (LA)—Gram negative and trypticase soy agar (TSA)—plates at 37° C. for 24 hours. Single colonies were placed in either 3 mL Lysogeny broth (LB)—Gram negative or trypticase soy broth (TSB)—Gram positive and incubated at 37° C., 250 rpm for 18 hours.
The antibiotic activity was determined using a Kirby-Bauer method according to Clinical Standard Laboratory Institute (CSLI) Guidelines (2017). Briefly, 180 μL of a 1 in 200 dilution (in LB or TSB) of overnight cultures of selected Gram negative and Gram positive bacteria were applied to an agar plate containing the solid growth medium, Mueller-Hinton agar (MHA). Sterile discs, inoculated with 50 μL of antibiotic, were first added to the agar plate before the plates were incubated for 24 hours at 37° C. Following incubation, the zone of inhibition (if it existed) was recorded.

HEK293 cells = assay: Cytotoxicity assay, resazurin (CO-ADD)
Protocol: The cytotoxicity studies were performed by CO-ADD (The Community for Open Antimicrobial Drug Discovery), funded by the Wellcome trust (UK) and the University of Queensland, Australia.^(28) In this study, the compounds were screened against a human embryonic kidney cell line, HEK293, at a set concentration of 32 μg/mL.
DMEM supplemented with 10% FBS was used as growth media and the cells were incubated together with the compounds for 20 hours at 37° C. in 5% CO2.
Cytotoxicity (or cell viability) was measured by fluorescence, excitation: 560/10 nm, emission: 590/10 nm (F560/590), after addition of 5 μL of 25 μg/mL Resazurin (2.3 μg/mL final concentration) and after incubation for further 3 h at 37° C. in 5% CO2. The fluorescence intensity was measured using a Tecan M1000 Pro monochromator plate reader, using automatic gain calculation CC50 (concentration at 50% cytotoxicity) were calculated by curve fitting the inhibition values vs. log(concentration) using sigmoidal dose-response function, with variable fitting values for bottom, top and slope. The curve fitting was implemented using Pipeline Pilot's dose-response component.

red blood cells = assay: Hemolysis assay (CO-ADD); assay type: cell-based; details: 32 μg/mL highest concentration tested
Source text: A problem often encountered by emerging drugs is hemolysis, also known as drug-induced immune hemolytic anemia.

`[C-]#[N+]/C=C/c1ccc(NC(C)=O)cc1/C=C/c1ccccc1` [Compound 41, N-(4-((E)-2-Isocyanovinyl)-3-((E)-styryl)phenyl)acetamide] gave an MIC (MRSA 252 [1]) of 6 µg/mL (≈ 20.8 µM), an MIC (MSSA 476 [2]) of 8 µg/mL (≈ 27.7 µM) and a zone of inhibition at 500 µg/mL (MRSA 252 [3]) of 32 mm. The zone of inhibition at 500 µg/mL (MSSA 476 [4]) was 34 mm, the zone of inhibition at 500 µg/mL (Escherichia coli DH5α) was 20 mm and the zone of inhibition at 500 µg/mL [5] was 34 mm. The zone of inhibition at 500 µg/mL ([6]; strain ASARM 61) was 28 mm, the zone of inhibition at 500 µg/mL ([6]; strain ASARM 70) was 32 mm and the zone of inhibition at 500 µg/mL ([6]; strain ASARM 71) was 32 mm. The zone of inhibition at 500 µg/mL ([6]; strain ASARM 72) was 30 mm, the zone of inhibition at 500 µg/mL ([6]; strain ASARM 73) was 27 mm and the zone of inhibition at 500 µg/mL ([6]; strain ASARM 75) was 26 mm. For the same compound, the zone of inhibition at 500 µg/mL ([6]; strain ASARM 76) was 27 mm, the zone of inhibition at 500 µg/mL ([6]; strain ASARM 77) was 25 mm and the zone of inhibition at 500 µg/mL ([6]; strain ASARM 79) was 29 mm. It also gave a zone of inhibition at 500 µg/mL ([6]; strain ASARM 80) of 30 mm, a zone of inhibition at 500 µg/mL ([6]; strain EOE 3) of 26 mm and a zone of inhibition at 500 µg/mL ([6]; strain EOE 23) of 26 mm. The zone of inhibition at 500 µg/mL ([6]; strain EOE 30) was 30 mm, the zone of inhibition at 500 µg/mL ([6]; strain EOE 35) was 28 mm and the zone of inhibition at 500 µg/mL ([6]; strain EOE 41) was 26 mm. The zone of inhibition at 500 µg/mL ([6]; strain EOE 42) was 30 mm, the zone of inhibition at 500 µg/mL ([6]; strain EOE 45) was 30 mm and the zone of inhibition at 500 µg/mL ([6]; strain EOE 52) was 28 mm. For the same compound, the zone of inhibition at 500 µg/mL ([6]; strain EOE 54) was 26 mm, the zone of inhibition at 500 µg/mL ([6]; strain EOE 57) was 30 mm and the zone of inhibition at 500 µg/mL ([6]; strain S139_7_7) was 22 mm. For the same compound, the zone of inhibition at 500 µg/mL ([6]; strain S197_1_1) was 32 mm, the zone of inhibition at 500 µg/mL ([6]; strain S197_1_8) was 30 mm and the zone of inhibition at 500 µg/mL ([6]; strain S197_1_9) was 32 mm. It also gave a zone of inhibition at 500 µg/mL ([6]; strain S197_1_10) of 31 mm, a zone of inhibition at 500 µg/mL ([6]; strain S295_1_1) of 29 mm and a zone of inhibition at 500 µg/mL ([6]; strain S295_1_2) of 25 mm. The zone of inhibition at 500 µg/mL ([6]; strain S295_1_3) was 27 mm, the zone of inhibition at 500 µg/mL ([6]; strain S364_5_11) was 27 mm and the zone of inhibition at 500 µg/mL ([6]; strain S364_5_12) was 28 mm. For the same compound, the zone of inhibition at 500 µg/mL ([6]; strain Sa_TPS 3026) was 28 mm, the zone of inhibition at 500 µg/mL ([6]; strain Sa_TPS 3072) was 26 mm and the zone of inhibition at 500 µg/mL ([6]; strain Sa_TPS 3092) was 28 mm. The zone of inhibition at 500 µg/mL ([6]; strain Sa_TPS 3097) was 28 mm, the zone of inhibition at 500 µg/mL ([6]; strain Sa_TPS 3103) was 28 mm and the zone of inhibition at 500 µg/mL ([6]; strain Sa_TPS 3104) was 28 mm. The zone of inhibition at 500 µg/mL ([6]; strain Sa_TPS 3106) was 36 mm, the zone of inhibition at 500 µg/mL ([6]; strain Sa_TPS 3118) was 32 mm and the zone of inhibition at 500 µg/mL ([6]; strain Sa_TPS 3133) was 28 mm. It also gave a zone of inhibition at 500 µg/mL ([6]; strain Sa_TPS 3134) of 26 mm, a zone of inhibition at 500 µg/mL ([6]; strain USFL 008) of 28 mm and a zone of inhibition at 500 µg/mL ([6]; strain USFL 009) of 27 mm. For the same compound, the zone of inhibition at 500 µg/mL ([6]; strain USFL 012) was 32 mm, the zone of inhibition at 500 µg/mL ([6]; strain USFL 016) was 29 mm and the zone of inhibition at 500 µg/mL ([6]; strain USFL 018) was 32 mm. It also gave a zone of inhibition at 500 µg/mL ([6]; strain USFL 020) of 28 mm, a zone of inhibition at 500 µg/mL ([6]; strain USFL 021) of 29 mm and a zone of inhibition at 500 µg/mL ([6]; strain USFL 028) of 29 mm. The zone of inhibition at 500 µg/mL ([6]; strain USFL 035) was 30 mm, the zone of inhibition at 500 µg/mL ([6]; strain USFL 054) was 30 mm and the zone of inhibition at 500 µg/mL ([6]; strain not given) was 30 mm. The “Concentration toxic to HEK 293 cells” value (HEK293 cells; HEK 293) was greater than 32000 ng/mL, the “toxicity towards the HEK293 cell line (in words)” value (HEK293 cells; set concentration of 32 μg/mL) was “no toxicity” and the “Hemolytic activity (HC10)” value (red blood cells) was greater than 32 µg/mL.
